For assay [1], the system named is adipose-like organoids. Briefly: Lipolysis assay (glycerol production), 3D organoids. The class given is cell-based, human. The following applies: 1 μM isoproterenol for 4 hours, organoids with and without microvessels. The method, then:
A lipolysis assay was performed on 2D (after 24 days of 2D culture) and 3D cultures (after 17 days of 2D and 7 days of 3D culture), using a commercially available kit (Sigma). Samples were treated with 1 μM isoproterenol for 4 hours. For 2D cultures, supernatants were then mixed with the reaction solution and incubated according to manufacturer's instructions. For 3D cultures, organoids were homogenized in the supernatant after isoproterenol incubation using a plastic pestle, to release glycerol trapped inside the organoid. The homogenized sample was briefly centrifuged, and supernatants were used for the remainder of the manufacturer's protocol. Samples were read at 570 nm using a plate reader (BioTek Instruments). For 2D cultures, samples cultured in FBS were used as control samples that will not undergo lipolysis. For 3D samples, negative controls were not treated with isoproterenol.

In assay [2] the test system is microvessels. Briefly: Microvessel growth (vessel length) under different culture media, FIG. 13. It is filed as cell-based, human. Particulars: medium or supplement used for microvessel culture. From the text:
FIG. 13 is a graph depicting vessel length (mm) of organoids cultured under a variety of conditions (serum free+VEGF, 10% FBS, RPMI/B-27/VEGF, ADM, AMM, RPMI/B-27+IM, RMPI/B-27+Dex, RPMI/B-27+IBMX).

The test system of assay [3] is adipose-like organoids. Briefly: TNF-α challenge with RT-PCR of adipocyte markers. The class given is cell-based, human. Particulars: TNF-α treatment. The method, then: (§1) Adipose organoids were seeded and cultured as described above. After 7 days of culture, medium was changed from AMM to AMM supplemented with or without 50 ng/ml TNF-α (Peprotech). The following day, organoids were either flash frozen for PCR analysis, fixed for histology, or used for an IL-6 enzyme-linked immunosorbent assay (ELISA).
RNA was extracted from either 2D cultures or 3D organoids using a Qiagen RNeasy Plus Micro kit following manufacturer's protocols. RNA was converted to cDNA with SuperScript™ IV VILO™ Master Mix (Fisher Scientific). cDNA was amplified with human primers (IDT Technologies) listed in Table 1. Primers for insulin receptor were designed using Primer3 software (NIH) and verified using BLAST database (NIH), with gene coding obtained from GenBank (NIH).
Real-time PCR was performed using a SYBER master mix (Fisher Scientific) and CFX96 Real Time System (Bio Rad). Adiponectin and PPAR-γ expression were normalized to GAPDH (IDT Technologies) and compared to either FBS treated controls (2D) or organoids without microvessels (3D). After RT-PCR, amplified cDNA was loaded into a 2% agarose gel and run at 90V. Gels were imaged for SYBER green on a gel scanner (Azure Biosystems).

The test system of assay [4] is adipose-like organoids. Briefly: TNF-α challenge with IL-6 ELISA. The class given is cell-based, human. The following applies: 50 ng/ml TNF-α, approximately 24 hours, organoids with and without microvessels. Here is the method: as §1
Organoids with and without microvessels and with or without TNF-α treatment were transferred with their supernatants to micro-centrifuge tubes and briefly homogenized with a plastic pestle. Samples were diluted and centrifuged for 2 minutes at 12,000 rcf to pellet remaining matrix and cell debris. An ELISA was performed with the supernatant following manufacturer instructions (R&D systems) to measure secreted interleukin-6 (IL-6) as a marker of adipocyte inflammation and dysfunction.
(ELISA stands for enzyme-linked immunosorbent assay.)

Assay [5] concerns human microvessels. Particulars: 50 ng/ml VEGF in serum free medium, 6 days of culture, versus no VEGF.

For the compound `CC(C)NCC(O)c1ccc(O)c(O)c1` (stereo not drawn) [isoproterenol], the “glycerol production in response to isoproterenol” value in assay [1] is given as “produced glycerol”. For the compound `CC(C)Cn1c(=O)n(C)c(=O)c2[nH]cnc21` [IBMX, 3-isobutyl-1-methylxanthine], the microvessel growth entry in assay [2] was “permanently impeded microvessel growth”.

Turning to TNF-α, the adiponectin expression result is on record as “small but distinct downregulation” in assay [3] (organoids with microvessels) and “changed minimally” in assay [3] (organoids with no microvessels). Further, in assay [4], the IL-6 secretion result is given as “dramatically increased IL-6 secretion”. Consider “vascular endothelial growth factor [VEGF]”, for which, in assay [5], the “vascular growth / vessel density of microvessels” value was “significantly increased vascular growth”.

Source of the values: patent publication US20220112464A1, “VASCULARIZED ORGANOID MODEL INCORPORATING ISOLATED HUMAN MICROVESSEL FRAGMENTS” (Advanced Solutions Life Sciences, LLC, priority 2020, published 2022).
